pIC50: −log10 of the molar value. A value given as a limit tells only on which side of the number the result lay.

In US20240368159A1, “HPK1 DEGRADERS, COMPOSITIONS COMPRISING THE HPK1 DEGRADER, AND METHODS OF USING THE SAME” (BIOFRONT LTD, priority 2021, published 2024) one finds Dmax and IC50 data, which are given here for eight molecules.

Experiment [1] concerns the target T1, HPK1 protein (Homo sapiens, UniProt Q92918).
T1 construct: Frozen human PBMC were purchased from Shanghai OribioTech; host or cells: human PBMC
In words: HPK1 protein degradation in human PBMC (western blot). The format is cell-based. The note with it: 18 h incubation. As to the method: HPK1 protein degradation in human PBMC: Frozen human PBMC were purchased from Shanghai OribioTech and recovered with culture medium (RMPI1640) prior to use. The cells were then incubated with a variety of concentrations of compound. After incubation for 18 h, the cells were collected and lysed. The protein concentration was determined by BCA protein assay kit from Thermo (23227). The HPK1 protein level was determined by western blots, using anti-human HPK1 polyclonal antibody from CST (4472S). Proteins were loaded into each well of the pre-casting gels and subjected to electrophoretic separation by SDS-PAGE. The protein resolved by SDS-PAGE were transferred to PVDF, blocked by 5% skim milk, and probed with anti-human HPK1 antibody or β-actin antibody from CST (3700S), using standard western blotting procedure.
T1 sequence (Q92918 whole entry): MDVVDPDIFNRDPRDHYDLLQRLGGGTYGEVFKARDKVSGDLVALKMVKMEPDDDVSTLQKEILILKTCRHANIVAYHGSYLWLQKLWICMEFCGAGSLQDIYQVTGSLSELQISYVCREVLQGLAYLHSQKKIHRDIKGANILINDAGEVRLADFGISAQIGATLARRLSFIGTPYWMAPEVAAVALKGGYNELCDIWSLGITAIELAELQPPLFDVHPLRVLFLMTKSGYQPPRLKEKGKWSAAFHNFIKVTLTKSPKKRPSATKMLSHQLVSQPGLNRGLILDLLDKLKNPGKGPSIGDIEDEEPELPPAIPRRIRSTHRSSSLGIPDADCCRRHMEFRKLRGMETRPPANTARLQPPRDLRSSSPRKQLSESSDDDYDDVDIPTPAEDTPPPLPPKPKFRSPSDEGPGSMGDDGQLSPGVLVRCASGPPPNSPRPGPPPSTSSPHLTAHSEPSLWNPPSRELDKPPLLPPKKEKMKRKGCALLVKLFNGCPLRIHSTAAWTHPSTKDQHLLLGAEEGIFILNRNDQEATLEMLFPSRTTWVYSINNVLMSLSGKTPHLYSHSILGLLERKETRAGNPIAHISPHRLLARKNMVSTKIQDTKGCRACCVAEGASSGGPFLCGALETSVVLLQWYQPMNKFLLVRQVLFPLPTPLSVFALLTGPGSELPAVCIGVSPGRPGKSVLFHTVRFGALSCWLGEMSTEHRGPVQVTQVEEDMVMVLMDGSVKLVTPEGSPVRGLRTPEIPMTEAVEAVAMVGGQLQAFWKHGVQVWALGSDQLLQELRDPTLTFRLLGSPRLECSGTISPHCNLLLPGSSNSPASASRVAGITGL

The target in experiment [2] is T2, HPK1 protein (Mus musculus, UniProt P70218).
T2 construct: the CD3+ T cell population was isolated from spleenocytes of mice; endogenous in cells; host or cells: primary mouse splenic CD3+ (pan) T cells
T2 sequence (P70218 1-827): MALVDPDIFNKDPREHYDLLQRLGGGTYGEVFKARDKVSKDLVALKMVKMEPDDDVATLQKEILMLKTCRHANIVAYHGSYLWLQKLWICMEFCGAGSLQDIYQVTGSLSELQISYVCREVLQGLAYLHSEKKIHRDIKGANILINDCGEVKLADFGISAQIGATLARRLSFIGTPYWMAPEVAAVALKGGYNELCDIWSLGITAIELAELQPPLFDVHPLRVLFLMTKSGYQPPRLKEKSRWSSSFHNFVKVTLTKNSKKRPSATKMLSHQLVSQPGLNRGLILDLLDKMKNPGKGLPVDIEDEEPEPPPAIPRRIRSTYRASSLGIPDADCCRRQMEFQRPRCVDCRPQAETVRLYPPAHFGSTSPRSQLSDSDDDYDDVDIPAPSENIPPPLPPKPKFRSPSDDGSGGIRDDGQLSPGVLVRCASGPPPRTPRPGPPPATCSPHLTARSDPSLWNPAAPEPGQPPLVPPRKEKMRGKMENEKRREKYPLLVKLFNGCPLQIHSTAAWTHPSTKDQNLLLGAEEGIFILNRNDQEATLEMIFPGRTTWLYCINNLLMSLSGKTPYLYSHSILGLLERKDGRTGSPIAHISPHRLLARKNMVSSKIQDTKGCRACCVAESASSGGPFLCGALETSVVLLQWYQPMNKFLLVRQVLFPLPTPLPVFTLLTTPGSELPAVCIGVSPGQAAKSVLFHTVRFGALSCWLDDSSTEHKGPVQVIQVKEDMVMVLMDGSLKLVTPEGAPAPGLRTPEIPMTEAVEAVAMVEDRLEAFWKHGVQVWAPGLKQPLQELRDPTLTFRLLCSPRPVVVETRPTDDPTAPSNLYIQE
In words: HPK1 protein degradation in mouse pan T cell (western blot). The format is cell-based. The following applies: 18 h incubation. As to the method: HPK1 protein degradation in mouse pan T cell: the CD3+ T cell population was isolated from spleenocytes of mice by using Pan T cell isolation kit from Miltenyi Biotec (130-095-130) following manufacture's instruction. The isolated T cells were then incubated with a variety of concentrations of compound. After incubation for 18 h, the cells were collected and lysed. The protein concentration was determined by BCA protein assay kit from Thermo (23227). The HPK1 protein level was determined by western blots, using anti-human HPK1 polyclonal antibody from CST (4472). Proteins were loaded into each well of the pre-casting gels and subjected to electrophoretic separation by SDS-PAGE. The protein resolved by SDS-PAGE were transferred to PVDF, blocked by 5% skim milk and probed with anti-human HPK1 antibody or β-actin antibody from CST (3700S), using following standard western blotting procedure.
On the technique in general: Immunoblotting shows a protein as a band on a membrane.

The target in experiment [3] is T3, HPK1 protein (Homo sapiens, UniProt Q92918).
T3 construct: purchased Signal Chem M23-11G-10
T3 sequence (Q92918 1-346 limits assumed): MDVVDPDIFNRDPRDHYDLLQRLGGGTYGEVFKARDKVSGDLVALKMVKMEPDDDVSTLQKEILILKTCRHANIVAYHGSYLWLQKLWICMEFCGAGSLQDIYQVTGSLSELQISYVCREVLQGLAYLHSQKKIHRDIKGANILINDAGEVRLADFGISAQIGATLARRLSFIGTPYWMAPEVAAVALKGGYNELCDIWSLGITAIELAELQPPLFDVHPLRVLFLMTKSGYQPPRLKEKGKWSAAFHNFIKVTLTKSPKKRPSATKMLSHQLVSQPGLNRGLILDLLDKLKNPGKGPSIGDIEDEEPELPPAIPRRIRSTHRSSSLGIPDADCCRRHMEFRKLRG
In words: HPK1 enzyme inhibition assay (ADP-Glo). The format is biochemical. The note with it: MBP substrate, ATP, ADP-Glo readout. Put shortly: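 Recombinant human HPK1 preincubated with compound 60 min at 25 °C, then reaction with MBP (0.2 ug/ul, 2× stock) and ATP (20 μM, 2× stock) 60 min at 25 °C. ADP formed detected by ADP-Glo after ATP depletion and conversion to ATP; IC50 calculated from signal.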
A general note: ADP-Glo first removes unused ATP, then detects ADP through luciferase.

The subject of another experiment is HPK1 p-SLP-76. As to the kind of experiment: HPK1 p-SLP-76 inhibition assay in human PBMC (HTRF). It is filed as cell-based. The note with it: 6 h compound, anti-CD3 stimulation 20 min. The protocol:
Human PBMC were purchased from OriCells (FPB004F-C). Before compound treatment, PBMC were starved in PRMI-1640 medium supplemented with 0.5% FBS overnight. The cell density was adjusted to 1*10^7 cells/mL in assay medium (RPMI-1640 no phenol red with 0.5% FBS) and 16 μL cell suspension was transferred per well to a 384-well plate (Corning #3765). 6× solution of test compound was prepared in assay medium and 4 μL was added per well to the 384-well plate. The plate was then incubated at 37° C., 5% CO2 for 6 h. PBMC in 384-well plate were stimulated with anti-CD3 (BD Biosciences #555329, final conc. is 10 ug/mL) for 20 min at 37° C., 5% CO2 by adding 4 μL 6× antibody solution per well. Phospho-SLP76 HTRF kit was purchased from Cisbio (63ADK076PEH). 8 μL 4× Lysis Buffer was added to 384-well plate after anti-CD3 stimulation. The plate was centrifuged at 1,000 rpm for 1 min, shaken at 250 rpm for 60 min and centrifuged again at 1,000 rpm for 5 min. Afterwards the cell lysates were transferred to the assay plate (Greiner #784075) with 16 μL per well. 4 μL detection antibody mix per well prepared in Detection Buffer was added to the assay plate, followed by centrifugation at 1,000 rpm for 1 min and incubation at 25° C. overnight.
(In general: Time-resolved FRET reads energy transfer from a long-lived donor to a nearby acceptor.)

By Dmax is commonly meant the greatest extent of degradation seen. A lower Dmax goes with a partial loss of target. Usually pIC50 stands for the negative decadic logarithm of the IC50, by convention in mol/L. A low value points to a high IC50. In the case of `O=C1CCC(N2C(=O)c3cc(F)c(N4CCN(CCCN5CCN(c6cccc(-c7cnc8[nH]cc(C9CC9)c8c7Cl)n6)C(=O)C5)CC4)cc3C2=O)C(=O)N1` (stereo not drawn) [Example 53, 5-(4-(3-(4-(6-(4-chloro-3-cyclopropyl-1H-pyrrolo[2,3-b]pyridin-5-yl)pyridin-2-yl)-3-oxopiperazin-1-yl)propyl)piperazin-1-yl)-2-(2,6-dioxopiperidin-3-yl)-6-fluoroisoindoline-1,3-dione], the Dmax on HPK1 protein [1] came to 86%; on HPK1 protein [2], 95%. The pIC50 at HPK1 protein [3] was 7.00 to 8.00.
On to `O=C1CCC(N2C(=O)c3cc(F)c(N4CCC5(CC4)CN(CCN4CCN(c6cccc(-c7cnc8[nH]cc(C9CC9)c8c7Cl)c6)C(=O)C4)C5)cc3C2=O)C(=O)N1` (stereo not drawn) [Example 52], for which the greatest degradation seen (Dmax) was 31% at HPK1 protein [1] and 95% on HPK1 protein [2]. On HPK1 protein [3], this molecule showed a negative-log IC50 (pIC50) of 7.00 to 8.00.
As to `CCc1c[nH]c2ncc(-c3cc(N4CCN(C(=O)CN(C)C5CCN(c6cc7c(cc6F)C(=O)N(C6CCC(=O)NC6=O)C7=O)CC5)CC4=O)ccc3F)c(Cl)c12` (stereo not drawn) [Example 44], the Dmax stood at 30% on HPK1 protein [1] and 50% at HPK1 protein [2]. On HPK1 protein [3], this molecule had a pIC50 of 7.00 to 8.00.
On HPK1 protein [1], `O=C1CCC(N2Cc3cc(C4=CC5CCC(C4)N5CCCN4CCN(c5cccc(-c6cnc7[nH]cc(C8CC8)c7c6Cl)c5)C(=O)C4)ccc3C2=O)C(=O)N1` (stereo not drawn) [Example 64, 3-(5-(8-(3-(4-(3-(4-chloro-3-cyclopropyl-1H-pyrrolo[2,3-b]pyridin-5-yl)phenyl)-3-oxopiperazin-1-yl)propyl)-8-azabicyclo[3.2.1]oct-2-en-3-yl)-1-oxoisoindolin-2-yl)piperidine-2,6-dione] yielded a Dmax of 70%. Moreover, the pIC50 on HPK1 protein [3] is at least 8.00.
Take `CCc1c[nH]c2ncc(-c3cccc(N4CCN(C(=O)CCN5CCN(c6ccc7c(c6)C(=O)N(C6CCC(=O)NC6=O)C7=O)CC5)CC4=O)c3)c(Cl)c12` (stereo not drawn) [Example 21, 5-(4-(3-(4-(3-(4-chloro-3-ethyl-1H-pyrrolo[2,3-b]pyridin-5-yl)phenyl)-3-oxopiperazin-1-yl)-3-oxopropyl)piperazin-1-yl)-2-(2,6-dioxopiperidin-3-yl)isoindoline-1,3-dione]: on HPK1 protein [1], the Dmax turned out to be 60%. This molecule also gave a pIC50 on HPK1 protein [3] of 7.00 to 8.00.
Taken in the same sequence, the figures for `CC(COC1CCN(c2cc3c(cc2F)C(=O)N(C2CCC(=O)NC2=O)C3=O)CC1)N1CCN(c2cccc(-c3cnc4[nH]cc(C5CC5)c4c3Cl)c2)C(=O)C1` (stereo not drawn) [Example 49, 5-(4-(2-(4-(3-(4-chloro-3-cyclopropyl-1H-pyrrolo[2,3-b]pyridin-5-yl)phenyl)-3-oxopiperazin-1-yl)propoxy)piperidin-1-yl)-2-(2,6-dioxopiperidin-3-yl)-6-fluoroisoindoline-1,3-dione] were below 50% and 6.00 to 7.00.
With `CCc1c[nH]c2ncc(-c3cccc(N4CCN(C(=O)CCN5CCN(C(=O)c6ccc(C)c(N7CCC(=O)NC7=O)c6)CC5)CC4=O)c3)c(Cl)c12` [Example 50, 1-(5-(4-(3-(4-(3-(4-chloro-3-ethyl-1H-pyrrolo[2,3-b]pyridin-5-yl)phenyl)-3-oxopiperazin-1-yl)-3-oxopropyl)piperazine-1-carbonyl)-2-methylphenyl)dihydro pyrimidine-2,4 (1H,3H)-dione], the pIC50 was below 5.00 in the experiment on HPK1 p-SLP-76 and at least 8.00 at HPK1 protein [3]. The same molecule displayed a Dmax at HPK1 protein [2] of 80%.
The like results for `Cn1nc(N2CCC(=O)NC2=O)c2ccc(C3CCN(CCCN4CCN(c5cccc(-c6cnc7[nH]cc(C8CC8)c7c6Cl)c5)C(=O)C4)CC3)cc21` [Example 77, 1-(6-(1-(3-(4-(3-(4-chloro-3-cyclopropyl-1H-pyrrolo[2,3-b]pyridin-5-yl)phenyl)-3-oxopiperazin-1-yl)propyl)piperidin-4-yl)-1-methyl-1H-indazol-3-yl)dihydro pyrimidine-2,4 (1H,3H)-dione] were, in that order, at least 6.52, at least 8.00 and 95%.
